# Experimental data reported in patent US10226509B2, “Lymphangiogenesis inhibitors for cancer and for graft survival” (TUFTS UNIVERSITY, priority 2014, dated 2019).
# Entries after “also recorded” stand apart in the source; their conditions may differ.
# B1: VEGF-C: lymphangiogenic growth factor used as positive control (protein)
# chain: AHYNTEILKSIDNEWRKTQCMPREVCIDVGKEFGVATNTFFKPPCVSVYRCGGCCNSEGLQCMNTSTSYLSKTLFEITVPLSQGPKPVTISFANHTSCRCMSKLDVYRQVHSIIRR
# Tests used:
# mouse corneas [1] = assay: Mouse model of suture-induced inflammatory corneal lymphangiogenesis; type: in vivo; settings: subconjunctival injections days 0, 2, 4, 6; TDG 200 mM; Gal-8N 15 μg; Prox1-EGFP mice
# Source text: The mouse model of suture-induced lymphangiogenesis was used as described in Cho, Y. K., et al. 2012. Invest Ophthalmol Vis Sci 53:685-692 and Cursiefen, C., et al. 2004. Invest Ophthalmol Vis Sci 45:1117-1124. Two 11-0 sutures were placed intrastromally about 2 mm from the limbus at the 12 and 6 o'clock positions in the Prox1-EGFP reporter mice. After surgery, a veterinary ophthalmic ointment was applied to prevent infection. Sutures were left in place for 7 days. To assess the effect of galectin inhibitors on suture-induced lymphangiogenesis, 10 μL of vehicle (PBS), TDG (200 mM in PBS), or Gal-8N (15 μg in PBS) were subconjunctivally injected on post-surgery days 0, 2, 4 and 6 using a 32 gauge needle with a 10 μL syringe (Hamilton). On day 7 post-surgery, mouse corneas were harvested and processed for staining with anti-LYVE-1 as described in examples herein. The areas of lymphatic vessels covering the whole corneas were calculated.
# There is much interest in finding ways to inhibit prolymphangiogenic factors as means of suppressing cancer metastasis, transplant rejection and chronic inflammation. To determine whether galectins can be targeted to control lymphangiogenesis, a well-established in vivo model of lymphangiogenesis was used. […] At the end of the treatment period, lymphatic vessel areas were quantified.
# [2] = test system: Gal-8-induced LEC sprouting; assay: LEC sprouting assay: Gal-8-induced sprouting with inhibitors or knockdown; type: cell-based, human; settings: Gal-8 0.75 μM, 24 h; TDG 20 mM; LY294002 20 μM; U0126 20 μM; PD0325901 1 μM; Avastin 10 μg/ml; Obtustatin 4 μM; antibodies 20 μg/ml; siRNA-transfected LECs
# Method: LEC spheroids were generated by seeding primary LECs at passage 4 or 5 in each well of 384-well hanging-drop plates (3D Biomatrix) in complete EGM-2 MV medium containing 0.25% methyl cellulose according to the manufacturer's instructions (750 cells/well). After 18 hours, LEC spheroids were collected, resuspended in serum-free EBM-2 basal medium, and mixed with collagen solution (PureCol collagen, Advanced BioMatrix, 2.2 mg/ml in M199 medium, pH adjusted to 7.4 with NaHCO3 and NaOH). Aliquots of the LEC spheroid/collagen mixture (250 μl/well of 48-well plate) were incubated in the presence or absence of various test agents for 24 hr. At the end of the incubation period, spheroids were stained with Calcein AM (Invitrogen, 1 μg/mL, 37° C., and 30 min). Fluorescent images were acquired using the EVOS FL cell imaging system, pixels were inverted for better visualization and cumulative length of each sprout was calculated. Results were expressed as fold change compared to corresponding controls. […] Test agents used included thiodigalactoside (10 to 50 mM, Carbosynth), 3′-sialyl lactose (2 to 10 mM, Carbosynth), 6′-sialyl lactose (2 to 10 mM, Carbosynth), LY294002 (20 μM, Abeam), U0126 (20 μM, Abeam), PD0325901 (1 μM, Selleckchem), human VEGFR-3-Fc chimera (10 μg/ml, R&D), human VEGFR-2-Fc chimera (10 μg/ml, R&D), Avastin (10 μg/ml, bevacizumab, Genentech/Roche), human control IgG (10 μg/ml, Southern Biotech), anti-human podoplanin functional grade antibody (10 μg/ml, eBioscience), and rat IgG2a κ isotype control functional grade antibody (10 μg/ml, eBioscience).
# To determine the role of these pathways on Gal-8-induced lymphangiogenesis, LEC spheroids were stimulated with Gal-8 (0.75 μM) in the presence or absence of PI3K inhibitor (LY294002, 20 μM) and two different MEK inhibitors (U0126, 20 μM; PD0325901, 1 μM). After overnight treatment with Gal-8, accumulated sprout lengths were quantified.
# [3] = test system: VEGF-C-induced LEC sprouting; assay: LEC sprouting assay: VEGF-C-induced sprouting; type: cell-based, human
# Method: LEC spheroids were generated by seeding primary LECs at passage 4 or 5 in each well of 384-well hanging-drop plates (3D Biomatrix) in complete EGM-2 MV medium containing 0.25% methyl cellulose according to the manufacturer's instructions (750 cells/well). After 18 hours, LEC spheroids were collected, resuspended in serum-free EBM-2 basal medium, and mixed with collagen solution (PureCol collagen, Advanced BioMatrix, 2.2 mg/ml in M199 medium, pH adjusted to 7.4 with NaHCO3 and NaOH). Aliquots of the LEC spheroid/collagen mixture (250 μl/well of 48-well plate) were incubated in the presence or absence of various test agents for 24 hr. At the end of the incubation period, spheroids were stained with Calcein AM (Invitrogen, 1 μg/mL, 37° C., and 30 min). Fluorescent images were acquired using the EVOS FL cell imaging system, pixels were inverted for better visualization and cumulative length of each sprout was calculated. Results were expressed as fold change compared to corresponding controls. It was observed that sprout lengths vary from passages to passages. Test agents used included thiodigalactoside (10 to 50 mM, Carbosynth), 3′-sialyl lactose (2 to 10 mM, Carbosynth), 6′-sialyl lactose (2 to 10 mM, Carbosynth), LY294002 (20 μM, Abeam), U0126 (20 μM, Abeam), PD0325901 (1 μM, Selleckchem), human VEGFR-3-Fc chimera (10 μg/ml, R&D), human VEGFR-2-Fc chimera (10 μg/ml, R&D), Avastin (10 μg/ml, bevacizumab, Genentech/Roche), human control IgG (10 μg/ml, Southern Biotech), anti-human podoplanin functional grade antibody (10 μg/ml, eBioscience), and rat IgG2a κ isotype control functional grade antibody (10 μg/ml, eBioscience).
# In this assay, the LEC spheroids were treated with VEGF-C (50 ng/ml) in the presence or absence of 0.75 μM of Gal-8 for 24 hours, and then accumulated sprout lengths were quantified. […] Synergistic effect of Gal-8 on VEGF-C-induced LEC sprouting was dose-dependent. […] At concentrations >0.5 μM Gal-8, there was no further increase in the degree of VEGF-C-induced lymphangiogenesis (FIG. 4C).
# To further characterize the role of carbohydrate-mediated recognition in VEGF-C-induced lymphangiogenesis, LEC spheroids were stimulated with VEGF-C (50 ng/ml) in the presence or absence of three different galectin inhibitors. […] Therefore, the data establishes the critical role of Gal-8-mediated carbohydrate-mediated recognition in VEGF-C-induced lymphangiogenesis.
# [4] = test system: VEGF-A-induced LEC sprouting; assay: LEC sprouting assay: VEGF-A-induced sprouting; type: cell-based, human; settings: VEGF-A 50 ng/ml; 10 μg/ml
# Method: LEC spheroids were generated by seeding primary LECs at passage 4 or 5 in each well of 384-well hanging-drop plates (3D Biomatrix) in complete EGM-2 MV medium containing 0.25% methyl cellulose according to the manufacturer's instructions (750 cells/well). After 18 hours, LEC spheroids were collected, resuspended in serum-free EBM-2 basal medium, and mixed with collagen solution (PureCol collagen, Advanced BioMatrix, 2.2 mg/ml in M199 medium, pH adjusted to 7.4 with NaHCO3 and NaOH). Aliquots of the LEC spheroid/collagen mixture (250 μl/well of 48-well plate) were incubated in the presence or absence of various test agents for 24 hr. […] Fluorescent images were acquired using the EVOS FL cell imaging system, pixels were inverted for better visualization and cumulative length of each sprout was calculated. Results were expressed as fold change compared to corresponding controls. […]
# In addition, investigations were performed to determine whether VEGF-A/VEGFR-2 pathway, which also promotes lymphangiogenesis, is involved in Gal-8-mediated lymphangiogenesis. LEC spheroids were stimulated with Gal-8 (0.75 μM) in the presence or absence of VEGFR-3-Fc, VEGFR-2-Fc (10 μg/ml), Avastin (bevacizumab) (10 μg/ml) or control IgG (10 μg/ml) for 24 hours and then accumulated sprout lengths were quantified. […]
# mouse corneas [5] = assay: Corneal mouse micropocket lymphangiogenesis assay; type: in vivo; settings: for mean lymphatic vessel areas: seven days
# Method: The corneal micropocket lymphangiogenesis assay was performed using implants containing a test agent, hydron (polyhydroxylmethylmethacrylate), and sucralfate (Cao, R., et al. 2011. Nat Protoc 6:817-826; Rogers, M. S., et al. 2007. Nat Protoc 2:2545-2550). Test agents included full-length Gal-8 (40-320 ng/pellet) and VEGF-C (160 ng/pellet). Implants containing hydron and sucralfate alone served as negative controls. The mice were anesthetized by intraperitoneal injection of a mixture of ketamine (90-120 mg/kg) and xylazine (10 mg/kg). The eyes were topically anesthetized with proparacaine and were gently proptosed (forwardly displaced) with forceps. Using a corneal blade and a stereoscope, intrastromal linear keratotomy was performed about 2 mm from the limbus. Using a von Graefe knife (Miltex), a pocket was extended towards the limbus, and the pellet was maneuvered into the pocket. The wound was coated with a veterinary ophthalmic ointment (Akorn) to prevent infection. Mouse corneas were harvested 7 days after pellet implantation, fixed in 4% paraformaldehyde/PBS (1 hour at 4° C.), washed with PBS, and fixed again in iced acetone (15 min at −20° C.). To quantitate the extent of lymphangiogenesis in Prox-1-EGFP reporter mice, flat mounts of the dissected corneas were evaluated by fluorescence microscopy. Fluorescent images were acquired by EVOS FL cell imaging system (Invitrogen), and vessel areas were calculated using the formula (Rogers, M. S., et al. 2007. Nat Protoc 2:2545-2550): vessel area=pellet distance×vessel length×clock hours×[…]. To quantitate the extent of lymphangiogenesis in WT and PDPN-deficient mice, corneas were stained with eFluor 570-anti-mouse LYVE-1 (clone ALY7, eBioScience, and 1:75) in 10% goat serum/0.2% Triton X-100/PBS overnight, 4° C. After several washes with 0.2% Triton X-100/PBS, the corneas were flattened and mounted with VECTASHIELD mounting medium (Vector Laboratories) and evaluated by fluorescence microscopy. In some examples, for comparisons, corneas were stained with Alexa Fluor® 488-anti-mouse CD31 (clone MEC13.3, 1:100, BioLegend) to visualize blood vessels.
# PDPN = assay: Cell surface expression of PDPN by flow cytometry; type: cell-based, human; settings: 30 min post-treatment; VEGF-C 50 ng/ml
# Method: (§1) Primary LECs were serum-starved overnight in basal EBM-2 medium. The cells were incubated with or without VEGF-C (50 ng/ml, PeproTech) or Gal-8 (0.2 μM) in serum-free EBM-2 medium for 10 and 30 min. At the end of the incubation period, cells were lifted with StemPro® Accutase® cell dissociation reagent (Invitrogen), washed with PBS and fixed with 4% paraformaldehyde/PBS on ice for 10 min, and were then stained using rat anti-human PDPN (1:500, BioLegend) and mouse anti-human VEGFR-3 (clone 9D9F9) (1:100, BioLegend) primary antibodies in cell staining buffer (BioLegend, 45 min on ice) and Alexa Fluor® 488 donkey anti-rat and Alexa Fluor® 647 anti-mouse secondary antibodies (1:1000, Invitrogen, 30 min on ice). For negative control, the primary antibodies were omitted. The stained cells were fixed with 2% paraformaldehyde/PBS, analyzed with BD FACSCalibur, and the mean fluorescence intensity of VEGFR-3 and PDPN were quantified with the FlowJo software (version 9.5.2).
# VEGFR-3 = assay: Cell surface expression of VEGFR-3 by flow cytometry; type: cell-based, human; settings: Gal-8 0.2 μM or VEGF-C 50 ng/ml
# Method: as §1
Molecule,effect on suture-induced corneal lymphangiogenesis (mouse corneas [1]),effect on Gal-8-induced LEC sprouting (in words) [2],"effect on VEGF-C-induced LEC sprouting (in words) ([3]; VEGF-C 50 ng/ml, 24 h)",effect on the synergistic effect of Gal-8 on VEGF-C-induced sprouting ([3]; VEGF-C plus Gal-8),effect on VEGF-A-induced LEC sprouting (in words) [4],"extent of vessel formation in galectin-8 KO mice compared to WT (mouse corneas [5]; 160 ng pellet, one week)","mean lymphatic vessel areas (mouse corneas [5]; PDPN KO mice, 160 ng pellet)","mean lymphatic vessel areas (mouse corneas [5]; WT mice, 160 ng pellet)","lymphangiogenesis induced by pellet in cornea (in words) (mouse corneas [5]; one week after implantation, Gal-8 40-320 ng/pellet, VEGF-C 160 ng, WT or Prox1-EGFP mice)",decrease of cell surface expression of PDPN (PDPN),decrease of cell surface expression of VEGFR-3 (VEGFR-3)
"OC[C@H]1O[C@@H](S[C@@H]2O[C@H](CO)[C@H](O)[C@H](O)[C@H]2O)[C@H](O)[C@@H](O)[C@H]1O [TDG, thiodigalactoside, reference compound]",significantly suppressed,almost completely inhibited,inhibited,almost completely inhibited,–,–,–,–,–,–,–
Avastin: an antibody targeted against VEGF-A,–,had no effect,–,–,almost completely abolished,–,–,–,–,–,–
B1,–,–,–,–,–,significantly reduced,0.67 mm^2,1.35 mm^2,markedly induced both hemangiogenesis and lymphangiogenesis; also recorded: induce robust growth of lymphatic vessels,about 5%,about 40%
